Experimental findings from patent publication US20200239530A1, “COMPOUNDS AND METHODS OF MODULATING PROTEIN DEGRADATION” (Vividion Therapeutics, Inc., priority 2017, published 2020) are described below.

SMILES strings stand for the structures.

Holding throughout (format): binding
The target in assay [1] is T1, GFM1 Elongation factor G, mitochondrial (Homo sapiens, UniProt Q96RP9).
T1 construct: Cells were resuspended in cold PBS on ice and sonicated with a probe sonicator to achieve lysis; endogenous in cells
T1 sequence (Q96RP9 37-751): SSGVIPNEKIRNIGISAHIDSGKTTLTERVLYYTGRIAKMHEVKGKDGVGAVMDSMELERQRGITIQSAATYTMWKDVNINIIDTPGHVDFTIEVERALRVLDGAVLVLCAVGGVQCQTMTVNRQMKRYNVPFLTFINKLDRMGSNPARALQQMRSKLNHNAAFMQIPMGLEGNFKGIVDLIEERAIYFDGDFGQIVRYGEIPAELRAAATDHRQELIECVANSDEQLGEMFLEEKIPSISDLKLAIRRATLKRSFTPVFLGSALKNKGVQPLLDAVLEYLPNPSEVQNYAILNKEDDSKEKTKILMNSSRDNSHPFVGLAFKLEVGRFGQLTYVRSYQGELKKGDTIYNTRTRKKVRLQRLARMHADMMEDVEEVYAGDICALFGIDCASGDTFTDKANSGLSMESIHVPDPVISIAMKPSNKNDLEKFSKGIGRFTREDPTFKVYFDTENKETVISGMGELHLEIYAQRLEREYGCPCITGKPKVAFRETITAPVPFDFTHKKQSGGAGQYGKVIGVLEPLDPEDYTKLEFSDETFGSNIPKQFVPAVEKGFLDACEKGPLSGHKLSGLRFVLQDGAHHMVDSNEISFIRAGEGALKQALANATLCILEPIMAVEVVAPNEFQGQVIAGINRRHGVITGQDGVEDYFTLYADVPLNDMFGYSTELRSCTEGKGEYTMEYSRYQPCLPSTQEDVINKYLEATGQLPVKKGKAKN
Kind of assay: Cysteine liganding, probe competition. Conditions: GFM1 Res# 146, uniprot Q96RP9. The method in brief:
(§1)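 Read-out is loss of desthiobiotin iodoacetamide labelling at cysteines, measured on streptavidin-enriched tryptic peptides. Compound preincubation ran 1 hr at 25° C in PBS lysate holding 5 mg/ml proteome before the probe was added.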

Assay [2] has as its target T2, KEAP1 Kelch-like ECH-associated protein 1 (Homo sapiens, UniProt Q14145).
T2 construct: Cells were resuspended in cold PBS on ice and sonicated with a probe sonicator to achieve lysis; endogenous in cells
Put plainly: Cysteine liganding, probe competition. Conditions: KEAP1 Res# 288, uniprot Q14145. The procedure, abridged:
as §1

Assay [3] deals with T3, cysteine residue illustrated in Table 1A or Table 2A (Homo sapiens, UniProt Q86Y01).
T3 construct: Cells were resuspended in cold PBS on ice and sonicated with a probe sonicator to achieve lysis; endogenous in cells
T3 sequence (Q86Y01 whole entry): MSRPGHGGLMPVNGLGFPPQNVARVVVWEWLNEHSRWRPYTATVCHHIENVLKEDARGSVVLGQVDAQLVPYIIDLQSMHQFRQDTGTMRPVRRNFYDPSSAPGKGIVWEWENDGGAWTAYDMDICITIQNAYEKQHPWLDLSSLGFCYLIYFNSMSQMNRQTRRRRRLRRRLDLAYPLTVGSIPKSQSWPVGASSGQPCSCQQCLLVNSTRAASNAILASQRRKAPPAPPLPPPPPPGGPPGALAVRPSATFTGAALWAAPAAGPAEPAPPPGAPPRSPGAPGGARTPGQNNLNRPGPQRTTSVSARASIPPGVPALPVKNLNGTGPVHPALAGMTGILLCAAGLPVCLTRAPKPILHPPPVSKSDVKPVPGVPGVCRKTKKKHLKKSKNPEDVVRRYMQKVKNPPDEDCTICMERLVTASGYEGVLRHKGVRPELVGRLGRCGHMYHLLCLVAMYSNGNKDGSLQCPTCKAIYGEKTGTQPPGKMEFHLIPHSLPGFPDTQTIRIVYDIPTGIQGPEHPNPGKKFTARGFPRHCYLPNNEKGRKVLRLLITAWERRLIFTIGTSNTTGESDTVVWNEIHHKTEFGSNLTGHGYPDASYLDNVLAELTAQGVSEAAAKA
Put plainly: Competitive cysteine profiling of cell lysate with desthiobiotin iodoacetamide probe (96-well sample prep). Conditions: UniProt Q86Y01; 100 uM. The method in brief:
(§2)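 Competitive profiling: compound and lysate (5 mg/ml protein) incubated 1 h at 25 °C before a 1 h, 25 °C desthiobiotin iodoacetamide probe step. Proteins were acetone-precipitated, reduced, alkylated and trypsinized; streptavidin-captured labelled peptides were eluted for MS analysis.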

The target of assay [4] is T4, cysteine residue illustrated in Table 1A or Table 2A (Homo sapiens, UniProt P49754).
T4 construct: Cells were resuspended in cold PBS on ice and sonicated with a probe sonicator to achieve lysis; endogenous in cells
T4 sequence (P49754 whole entry): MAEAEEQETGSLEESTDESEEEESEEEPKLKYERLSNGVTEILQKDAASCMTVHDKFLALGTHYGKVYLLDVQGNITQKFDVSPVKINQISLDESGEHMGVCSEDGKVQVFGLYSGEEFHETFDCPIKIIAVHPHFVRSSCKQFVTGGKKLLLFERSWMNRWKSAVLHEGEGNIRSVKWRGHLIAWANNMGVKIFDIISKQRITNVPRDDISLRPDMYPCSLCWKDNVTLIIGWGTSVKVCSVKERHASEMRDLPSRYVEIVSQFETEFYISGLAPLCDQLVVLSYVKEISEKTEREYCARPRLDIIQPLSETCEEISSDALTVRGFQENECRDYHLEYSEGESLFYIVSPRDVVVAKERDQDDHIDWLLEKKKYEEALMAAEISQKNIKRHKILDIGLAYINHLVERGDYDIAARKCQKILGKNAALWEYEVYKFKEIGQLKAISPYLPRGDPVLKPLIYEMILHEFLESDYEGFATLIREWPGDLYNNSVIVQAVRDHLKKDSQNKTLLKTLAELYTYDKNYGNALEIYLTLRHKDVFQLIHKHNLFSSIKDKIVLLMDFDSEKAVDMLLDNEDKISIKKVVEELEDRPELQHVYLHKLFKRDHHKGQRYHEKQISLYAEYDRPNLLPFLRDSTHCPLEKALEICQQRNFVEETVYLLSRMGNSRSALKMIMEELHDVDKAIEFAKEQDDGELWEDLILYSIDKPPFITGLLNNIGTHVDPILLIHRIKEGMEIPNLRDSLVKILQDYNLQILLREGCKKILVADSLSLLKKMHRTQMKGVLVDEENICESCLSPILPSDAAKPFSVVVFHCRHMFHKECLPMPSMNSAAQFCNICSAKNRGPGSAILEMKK
The description is as above. Conditions: UniProt P49754; KB05 100 uM. The method in brief: as §2

The target of the next assay is T5, FDFT1 Squalene synthase (Homo sapiens, UniProt P37268).
T5 construct: 200 μL of lysate containing 5 mg/ml proteome was treated with 2 μL of 100× compound stock; endogenous in cells
T5 sequence (P37268 1-417): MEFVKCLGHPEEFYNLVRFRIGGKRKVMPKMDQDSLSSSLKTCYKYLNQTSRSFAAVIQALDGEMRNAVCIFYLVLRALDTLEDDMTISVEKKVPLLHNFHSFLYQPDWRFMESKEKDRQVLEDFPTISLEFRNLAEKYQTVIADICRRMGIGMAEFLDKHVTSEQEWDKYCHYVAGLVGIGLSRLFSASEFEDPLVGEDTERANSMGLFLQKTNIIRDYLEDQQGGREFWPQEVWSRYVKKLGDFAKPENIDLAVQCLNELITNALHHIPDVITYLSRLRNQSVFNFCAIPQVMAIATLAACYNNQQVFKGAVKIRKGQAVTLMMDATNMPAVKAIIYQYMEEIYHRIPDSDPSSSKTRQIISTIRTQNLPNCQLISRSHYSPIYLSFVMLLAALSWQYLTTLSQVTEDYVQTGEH
Kind of assay: Cysteine liganding, probe competition. The procedure, abridged:
as §1

For assay [5], the target named is T6, cysteine residue illustrated in Table 1A or Table 2A (Homo sapiens, UniProt P10074).
T6 construct: Cells were resuspended in cold PBS on ice and sonicated with a probe sonicator to achieve lysis; endogenous in cells
Put plainly: Competitive cysteine profiling of cell lysate with desthiobiotin iodoacetamide probe (96-well sample prep). Conditions: UniProt P10074; KB03 100 uM. The procedure, abridged:
as §2

The target of assay [6] is T7, cysteine residue illustrated in Table 1A or Table 2A (Homo sapiens, UniProt Q9NZJ0).
T7 construct: Cells were resuspended in cold PBS on ice and sonicated with a probe sonicator to achieve lysis; endogenous in cells
T7 sequence (Q9NZJ0 whole entry): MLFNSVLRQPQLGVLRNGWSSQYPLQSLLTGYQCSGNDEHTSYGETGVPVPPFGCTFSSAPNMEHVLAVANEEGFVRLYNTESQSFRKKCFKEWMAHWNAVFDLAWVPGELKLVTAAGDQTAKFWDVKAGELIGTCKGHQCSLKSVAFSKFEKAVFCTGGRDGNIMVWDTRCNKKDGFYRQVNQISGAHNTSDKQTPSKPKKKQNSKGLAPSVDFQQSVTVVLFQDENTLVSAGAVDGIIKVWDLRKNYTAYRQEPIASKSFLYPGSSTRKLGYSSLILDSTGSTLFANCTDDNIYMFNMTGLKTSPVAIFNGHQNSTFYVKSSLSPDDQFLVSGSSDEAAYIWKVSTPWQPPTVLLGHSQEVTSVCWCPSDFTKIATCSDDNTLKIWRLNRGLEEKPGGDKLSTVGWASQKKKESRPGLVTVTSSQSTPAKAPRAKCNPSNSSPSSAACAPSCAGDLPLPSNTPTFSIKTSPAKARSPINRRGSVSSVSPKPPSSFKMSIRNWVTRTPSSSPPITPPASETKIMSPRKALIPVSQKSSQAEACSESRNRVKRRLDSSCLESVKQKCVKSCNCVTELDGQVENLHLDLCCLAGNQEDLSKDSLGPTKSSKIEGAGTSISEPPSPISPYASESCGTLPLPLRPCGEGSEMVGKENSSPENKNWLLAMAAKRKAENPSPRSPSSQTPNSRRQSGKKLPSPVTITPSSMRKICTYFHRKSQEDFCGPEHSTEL
The description is as above. Conditions: UniProt Q9NZJ0; 500 uM. The procedure, abridged:
as §2

Assay [7] addresses T8, cysteine residue illustrated in Table 1A or Table 2A (Homo sapiens, UniProt Q9UBI1).
T8 construct: Cells were resuspended in cold PBS on ice and sonicated with a probe sonicator to achieve lysis; endogenous in cells
The assay is described as above. Conditions: UniProt Q9UBI1; 500 uM. The procedure, abridged:
as §2

Assay [8] addresses T9, cysteine residue illustrated in Table 1A or Table 2A (Homo sapiens, UniProt Q15386).
T9 construct: Cells were resuspended in cold PBS on ice and sonicated with a probe sonicator to achieve lysis; endogenous in cells
Described as above. Conditions: UniProt Q15386; KB03 100 uM. The procedure, abridged: as §2

T2 sequence (Q14145 whole entry): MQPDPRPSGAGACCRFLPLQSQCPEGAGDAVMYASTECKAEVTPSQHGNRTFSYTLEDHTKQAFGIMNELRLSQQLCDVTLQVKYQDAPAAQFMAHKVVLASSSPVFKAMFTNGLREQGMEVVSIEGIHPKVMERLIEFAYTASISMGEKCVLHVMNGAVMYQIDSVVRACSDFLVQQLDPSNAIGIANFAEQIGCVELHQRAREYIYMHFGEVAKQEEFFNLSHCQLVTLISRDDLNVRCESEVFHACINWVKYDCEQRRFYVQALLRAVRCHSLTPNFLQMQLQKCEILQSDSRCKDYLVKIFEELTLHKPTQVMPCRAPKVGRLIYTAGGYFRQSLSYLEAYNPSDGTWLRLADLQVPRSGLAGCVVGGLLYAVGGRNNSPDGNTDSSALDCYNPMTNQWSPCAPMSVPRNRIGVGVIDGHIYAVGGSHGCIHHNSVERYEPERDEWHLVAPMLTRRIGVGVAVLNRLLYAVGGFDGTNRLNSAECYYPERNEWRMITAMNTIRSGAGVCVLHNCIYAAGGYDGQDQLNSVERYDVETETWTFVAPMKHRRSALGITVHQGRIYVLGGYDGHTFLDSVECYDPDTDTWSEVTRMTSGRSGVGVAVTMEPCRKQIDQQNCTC
T9 sequence (Q15386 whole entry): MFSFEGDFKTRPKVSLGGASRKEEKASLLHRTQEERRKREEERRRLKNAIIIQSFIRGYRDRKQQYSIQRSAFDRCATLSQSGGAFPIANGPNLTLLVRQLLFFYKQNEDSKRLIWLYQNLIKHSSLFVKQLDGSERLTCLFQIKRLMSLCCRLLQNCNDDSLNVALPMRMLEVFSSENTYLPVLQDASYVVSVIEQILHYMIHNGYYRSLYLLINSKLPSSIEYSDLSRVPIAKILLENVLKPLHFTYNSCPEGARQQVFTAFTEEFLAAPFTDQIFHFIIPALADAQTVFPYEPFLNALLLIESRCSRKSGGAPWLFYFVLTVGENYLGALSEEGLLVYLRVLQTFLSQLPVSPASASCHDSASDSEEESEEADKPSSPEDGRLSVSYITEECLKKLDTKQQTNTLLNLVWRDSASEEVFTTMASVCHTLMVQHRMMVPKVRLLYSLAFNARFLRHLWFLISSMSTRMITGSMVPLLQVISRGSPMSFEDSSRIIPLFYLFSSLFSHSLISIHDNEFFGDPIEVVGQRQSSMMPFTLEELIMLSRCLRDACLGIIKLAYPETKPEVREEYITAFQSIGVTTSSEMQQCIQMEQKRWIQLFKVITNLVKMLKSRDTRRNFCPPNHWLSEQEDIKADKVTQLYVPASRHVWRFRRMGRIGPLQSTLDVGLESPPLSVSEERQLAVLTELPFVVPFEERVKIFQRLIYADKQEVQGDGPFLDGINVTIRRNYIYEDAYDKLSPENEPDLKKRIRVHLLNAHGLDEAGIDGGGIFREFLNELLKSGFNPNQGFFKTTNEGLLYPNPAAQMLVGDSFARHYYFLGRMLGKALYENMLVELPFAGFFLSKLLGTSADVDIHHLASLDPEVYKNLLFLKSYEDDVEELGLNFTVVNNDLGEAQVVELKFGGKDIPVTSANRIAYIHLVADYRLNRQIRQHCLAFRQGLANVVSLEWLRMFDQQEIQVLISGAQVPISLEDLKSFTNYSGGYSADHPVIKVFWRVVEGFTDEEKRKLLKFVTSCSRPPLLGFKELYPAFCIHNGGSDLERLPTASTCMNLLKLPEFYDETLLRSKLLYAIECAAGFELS
T8 sequence (Q9UBI1 whole entry): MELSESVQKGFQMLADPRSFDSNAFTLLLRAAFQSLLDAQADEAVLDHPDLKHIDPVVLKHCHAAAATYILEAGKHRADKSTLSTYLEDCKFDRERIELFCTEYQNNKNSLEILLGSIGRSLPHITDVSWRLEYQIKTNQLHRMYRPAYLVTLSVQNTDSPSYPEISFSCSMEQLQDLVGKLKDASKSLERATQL

For the compound `COc1ccc2c(c1)CCCN2C(=O)CCl` [KB02], the Liganded result in assay [1] and in [2] was “YES” throughout.
For the compound `C=CC(=O)N(c1ccccc1)c1ccc(Br)cc1` [KB05], the “KB05_100 uM_percent_inhibition” value in assay [3] is 17%; in assay [4], 10%.
Take `O=C(CCl)Nc1cc(C(F)(F)F)cc(C(F)(F)F)c1` [KBO3]: the Liganded result on FDFT1 Squalene synthase (FDFT1 Res# 6, uniprot P37268) is recorded as “YES”. At FDFT1 Squalene synthase (uniprot P37268), the “100 Max” value was determined as 59.08, the 100 ave is reported as 37.7, the “500 Max” value turned out to be 82.93 and the 500 ave amounted to 82.93. For the same compound, the “KB03_100 uM_percent_inhibition” value in [5] stood at 24%. Besides, the “KB03_500 uM_percent_inhibition” value in assay [6] is 69%. Moreover, the “KB03_500 uM_percent_inhibition” value in [7] is 29%. The “KB03_100 uM_percent_inhibition” value in assay [8] worked out at 16%.
